# Patent US9127003B2, “2-(azaindol-2-yl)benzimidazoles as PAD4 inhibitors” (Glaxo Group Limited, priority 2012, dated 2015)
# “And” between values parts separate entries of the source, which are not always exact repeats. Equal values may be shown once. Where a name gives a salt, the structure may show the parent alone.
# Molecular target: T1, Recombinant human PAD2 (residues 1-665) (Homo sapiens, UniProt Q9Y2J8)
# T1 construct: Recombinant human PAD2 (residues 1-665); 6His-FLAG (N); made in house; host or cells: baculovirus-infected Sf9 insect cells
# T1 sequence (Q9Y2J8 whole entry, the tested form may be a part): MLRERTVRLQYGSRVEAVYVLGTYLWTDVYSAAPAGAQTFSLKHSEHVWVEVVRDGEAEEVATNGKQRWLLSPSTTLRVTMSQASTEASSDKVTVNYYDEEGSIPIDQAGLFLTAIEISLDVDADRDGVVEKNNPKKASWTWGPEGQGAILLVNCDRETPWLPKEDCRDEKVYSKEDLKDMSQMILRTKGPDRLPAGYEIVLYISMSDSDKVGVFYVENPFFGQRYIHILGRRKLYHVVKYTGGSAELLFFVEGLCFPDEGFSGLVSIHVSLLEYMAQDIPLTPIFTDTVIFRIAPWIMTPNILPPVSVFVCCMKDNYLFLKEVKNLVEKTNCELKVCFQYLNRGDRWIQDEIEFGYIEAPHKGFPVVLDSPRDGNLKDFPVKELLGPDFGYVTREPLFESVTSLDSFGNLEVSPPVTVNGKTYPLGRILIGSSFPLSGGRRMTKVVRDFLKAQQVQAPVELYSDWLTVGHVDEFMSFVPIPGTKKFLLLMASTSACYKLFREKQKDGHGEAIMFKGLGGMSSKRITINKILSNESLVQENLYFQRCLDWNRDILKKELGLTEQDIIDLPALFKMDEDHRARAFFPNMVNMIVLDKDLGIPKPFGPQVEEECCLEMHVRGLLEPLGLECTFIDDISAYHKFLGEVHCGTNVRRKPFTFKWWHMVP
# Assay: PAD2 enzyme assay (NH3 release, BAEE substrate, fluorescence)
# Format: biochemical
# Details: PAD2 enzyme assay above or similar assays; read-out: mean pIC50 (converted)
# Protocol: Recombinant human PAD2 (residues 1-665) was expressed in baculovirus-infected Sf9 insect cells as an N-terminal 6His-FLAG-tagged fusion protein. Activity of the final product was determined using a FLINT NH3 release assay.
# 8 μl of PAD2 enzyme diluted to an assay concentration of 30 nM in assay buffer (100 mM HEPES, 50 mM NaCl, 2 mM DTT, 7.5% glycerol and 1.5 mM CHAPS pH 8), and added to wells containing 0.1 μl of various concentrations of compound or DMSO vehicle (0.8% final) in a Greiner high volume 384 well black plate. Following 30 mins pre-incubation at room temperature, the reaction was initiated by the addition of 4 μl of substrate buffer containing 180 uM N-a-benzoyl-L-arginine ethyl ester (BAEE), 100 mM HEPES, 50 mM NaCl, 240 uM CaCl2 (2H2O) and 2 mM DTT, pH 8.0. The reaction was stopped after 90 mins with the addition of 38 μl stop/detection buffer containing 50 mM EDTA, 2.6 mM phthalaldehyde and 2.6 mM DTT. Assay incubated at room temperature for 90 mins before measuring fluorescent signal (λex 405/λem 460) on an Envision plate reader (Perkin Elmer Life Sciences, Waltham, Mass., USA)
row,SMILES,IC50
1,"CCn1c(-c2nc3cc(C(=O)N4CCC[C@@H](N)C4)ccc3n2C)cc2cccnc21 [Example 2B, (R)-(3-Aminopiperidin-1-yl)(2-(1-ethyl-1H-pyrrolo[2,3-b]pyridin-2-yl)-1-methyl-1H-benzo[d]imidazol-5-ylmethanone hydrochloride]",63.1 to 79.4 µM
2,"Cn1c(-c2cc3cccnc3n2CC2CC2)nc2cc(C(=O)N3CCC[C@@H](N)C3)ccc21 [Example 5B, (R)-(3-Aminopiperidin-1-yl)(2-(1-(cyclopropylmethyl)-1H-pyrrolo[2,3-b]pyridin-2-yl)-1-methyl-1H-benzo[d]imidazol-5-yl)methanone, hydrochloride]",63.1 to 79.4 µM and > 79.4 µM
3,"CCn1c(-c2nc3cc(C(=O)N4CCC[C@@H](N)C4)cc(OC)c3n2C)cc2cccnc21 [Example 9B, (R)-(3-Aminopiperidin-1-yl)(2-(1-ethyl-1H-pyrrolo[2,3-b]pyridin-2-yl)-7-methoxy-1-methyl-1H-benzo[d]imidazol-5-yl)methanone, hydrochloride]",63.1 to 79.4 µM and > 79.4 µM
4,"COc1cc(C(=O)N2CCC[C@@H](N)C2)cc2nc(-c3cc4cccnc4n3CC3CC3)n(C)c12 [Example 10B, (R)-(3-Aminopiperidin-1-yl)(2-(1-(cyclopropylmethyl)-1H-pyrrolo[2,3-b]pyridin-2-yl)-7-methoxy-1-methyl-1H-benzo[d]imidazol-5-yl)methanone, hydrochloride]",63.1 to 79.4 µM and > 79.4 µM

# Molecular target: T2, Recombinant human PAD4 (residues 1-663) (Homo sapiens, UniProt Q9UM07)
# T2 construct: Recombinant human PAD4 (residues 1-663); GST (N, cleaved yes); made in house; host or cells: E. coli
# T2 sequence (Q9UM07 whole entry, the tested form may be a part): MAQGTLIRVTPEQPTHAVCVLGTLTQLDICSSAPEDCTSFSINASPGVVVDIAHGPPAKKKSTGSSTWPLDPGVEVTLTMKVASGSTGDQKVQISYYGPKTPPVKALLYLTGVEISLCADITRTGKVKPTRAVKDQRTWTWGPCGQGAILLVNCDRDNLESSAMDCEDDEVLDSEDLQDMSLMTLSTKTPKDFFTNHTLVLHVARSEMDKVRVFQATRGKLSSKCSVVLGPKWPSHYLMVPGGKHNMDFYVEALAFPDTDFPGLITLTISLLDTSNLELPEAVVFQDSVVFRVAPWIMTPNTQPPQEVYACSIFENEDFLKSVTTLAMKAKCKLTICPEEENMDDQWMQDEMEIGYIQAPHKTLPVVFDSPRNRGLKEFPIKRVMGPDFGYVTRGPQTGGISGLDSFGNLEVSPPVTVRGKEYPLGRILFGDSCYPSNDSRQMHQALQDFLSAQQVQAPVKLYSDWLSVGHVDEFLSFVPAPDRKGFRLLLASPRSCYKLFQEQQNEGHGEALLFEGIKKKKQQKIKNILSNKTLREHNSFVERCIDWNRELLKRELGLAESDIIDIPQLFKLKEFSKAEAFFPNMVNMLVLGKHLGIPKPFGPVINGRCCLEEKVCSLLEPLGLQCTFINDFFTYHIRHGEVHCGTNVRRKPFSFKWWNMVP
# Assay: PAD4 enzyme assay (NH3 release, BAEE substrate, fluorescence)
# Format: biochemical
# Details: PAD4 enzyme assay above (Conditions A or B) or similar assays; read-out: mean pIC50 (converted)
# Protocol: Recombinant human PAD4 (residues 1-663) was expressed in E. coli as an N-terminal GST-tagged fusion protein. During purification of the protein, the GST tag was removed by cleavage with PreScission Protease (GE Healthcare). Activity of the final product was determined using a FLINT NH3 release assay.
# (§1) 8 μl of PAD4 enzyme diluted to an assay concentration of 75 nm in assay buffer (a).: (100 mM HEPES, 50 mM NaCl, 2 mM DTT and 0.6 mg/mIBSA pH 8), or in assay buffer (b).: (100 mM HEPES, 50 mM NaCl, 2 mM DTT, 7.5% glycerol and 1.5 mM CHAPS pH 8), and added to wells containing 0.1 μl of various concentrations of compound or DMSO vehicle (0.8% final) in a Greiner high volume 384 well black plate. Following 30 mins pre-incubation at room temperature, the reaction was initiated by the addition of 4 μl of substrate buffer containing 3 mM N-a-benzoyl-L-arginine ethyl ester (BAEE), 100 mM HEPES, 50 mM NaCl, 600 uM CaCl2 (2H2O) and 2 mM DTT, pH 8.0. The reaction was stopped after 100 mins with the addition of 38 μl stop/detection buffer containing 50 mM EDTA, 2.6 mM phthalaldehyde and 2.6 mM DTT. Assay incubated at room temperature for 90 mins before measuring fluorescent signal (λex 413/λem 476) on an Envision plate reader (Perkin Elmer Life Sciences, Waltham, Mass., USA)
# as §1, with “of 30 nM” for “of 75 nm”, “buffer” for “buffer (a).:”, “mg/mIBSA” for “mg/mIBSA pH 8), or in assay buffer (b).: (100 mM HEPES, 50 mM NaCl, 2 mM DTT, 7.5% glycerol and 1.5 mM CHAPS”, “after 60” for “after 100”, “(λex 405/λem 460)” for “(λex 413/λem 476)”
row,SMILES,IC50
1,"COc1cc(C(=O)N2C[C@@H](N)CC[C@H]2C)cc2nc(-c3cc4cccnc4n3CC3CC3)n(C)c12 (single isomer, unassigned) [Example 23, ((cis)-5-Amino-2-methylpiperidin-1-yl)(2-(1-(cyclopropylmethyl)-1H-pyrrolo[2,3-b]pyridin-2-yl)-7-methoxy-1-methyl-1H-benzo[d]imidazol-5-yl)methanone, hydrochloride]",0.0316 to 10 µM
2,"COc1cc(C(=O)N2C[C@H](N)CC[C@@H]2C)cc2nc(-c3cc4cccnc4n3CC3CC3)n(C)c12 (single isomer, unassigned) [Example 24, ((cis)-5-Amino-2-methylpiperidin-1-yl)(2-(1-(cyclopropylmethyl)-1H-pyrrolo[2,3-b]pyridin-2-yl)-7-methoxy-1-methyl-1H-benzo[d]imidazol-5-yl)methanone, hydrochloride]",0.0316 to 10 µM
3,"CCn1c(-c2nc3cc(C(=O)N4CCCC(N)C4)ccc3n2C)cc2cnccc21 (centres unmarked) [Example 1, 1-{[2-(1-Ethyl-1H-pyrrolo[3,2-c]pyridin-2-yl)-1-methyl-1H-benzimidazol-5-yl]carbonyl}-3-piperidinamine]",0.0316 to 10 µM
4,"CCn1c(-c2nc3cc(C(=O)N4CCC[C@@H](N)C4)ccc3n2C)cc2cccnc21 [Example 2A, (R)-(3-Aminopiperidin-1-yl)(2-(1-ethyl-1H-pyrrolo[2,3-b]pyridin-2-yl)-1-methyl-1H-benzo[d]imidazol-5-yl)methanone]",0.0316 to 10 µM
5,"CCn1c(-c2nc3cc(C(=O)N4CCC[C@@H](N)C4)ccc3n2C)cc2ccncc21 [Example 3, (R)-(3-Aminopiperidin-1-yl)(2-(1-ethyl-1H-pyrrolo[2,3-c]pyridin-2-yl)-1-methyl-1H-benzo[d]imidazol-5-yl)methanone]",0.0316 to 10 µM
6,"Cn1c(-c2cc3cccnc3n2CC(F)(F)F)nc2cc(C(=O)N3CCC[C@@H](N)C3)ccc21 [Example 4A, (R)-(3-Aminopiperidin-1-yl)(1-methyl-2-(1-(2,2,2-trifluoroethyl)-1H-pyrrolo[2,3-b]-pyridin-2-yl)-1H-benzo[d]imidazol-5-yl)methanone]",0.0316 to 10 µM
7,"Cn1c(-c2cc3cccnc3n2CC2CC2)nc2cc(C(=O)N3CCC[C@@H](N)C3)ccc21 [Example 5B, (R)-(3-Aminopiperidin-1-yl)(2-(1-(cyclopropylmethyl)-1H-pyrrolo[2,3-b]pyridin-2-yl)-1-methyl-1H-benzo[d]imidazol-5-yl)methanone, hydrochloride]",0.0316 to 10 µM and 0.2 µM
8,"CCn1c(-c2nc3cc(C(=O)N4CCC[C@@H](N)C4)ccc3n2C)cc2cc(OC)cnc21 [Example 6, (R)-(3-Aminopiperidin-1-yl)(2-(1-ethyl-5-methoxy-1H-pyrrolo[2,3-b]pyridin-2-yl)-1-methyl-1H-benzo[d]imidazol-5-yl)methanone]",0.0316 to 10 µM
9,"CCn1c(-c2nc3cc(C(=O)N4CCC[C@@H](N)C4)ccc3n2C)cc2cc(OC)ncc21 [Example 7, (R)-(3-Aminopiperidin-1-yl)(2-(1-ethyl-5-methoxy-1H-pyrrolo[2,3-c]pyridin-2-yl)-1-methyl-1H-benzo[d]imidazol-5-yl)methanone]",0.0316 to 10 µM
10,"CCn1c(-c2nc3cc(C(=O)N4CCC[C@@H](N)C4)ccc3n2C)cc2cc(O)cnc21 [Example 8, 2-(5-{[(3R)-3-Amino-1-piperidinyl]carbonyl}-1-methyl-1H-benzimidazol-2-yl)-1-ethyl-1H-pyrrolo[2,3-b]pyridin-5-ol]",0.0316 to 10 µM
11,"CCn1c(-c2nc3cc(C(=O)N4CCC[C@@H](N)C4)cc(OC)c3n2C)cc2cccnc21 [Example 9A, (R)-(3-Aminopiperidin-1-yl)(2-(1-ethyl-1H-pyrrolo[2,3-b]pyridin-2-yl)-7-methoxy-1-methyl-1H-benzo[d]imidazol-5-yl)methanone]",0.0316 to 10 µM
12,"COc1cc(C(=O)N2CCC[C@@H](N)C2)cc2nc(-c3cc4cccnc4n3CC3CC3)n(C)c12 [Example 10B, (R)-(3-Aminopiperidin-1-yl)(2-(1-(cyclopropylmethyl)-1H-pyrrolo[2,3-b]pyridin-2-yl)-7-methoxy-1-methyl-1H-benzo[d]imidazol-5-yl)methanone, hydrochloride]",0.0316 to 10 µM and 0.0501 µM
13,"COc1cc(C(=O)N2CCC[C@@H](N)C2)cc2nc(-c3cc4cccnc4n3CC(F)(F)F)n(C)c12 [Example 11A, (R)-(3-Aminopiperidin-1-yl)(7-methoxy-1-methyl-2-(1-(2,2,2-trifluoroethyl)-1H-pyrrolo[2,3-b]pyridin-2-yl)-1H-benzo[d]imidazol-5-yl)methanone]",0.0316 to 10 µM
14,"CCn1c(-c2nc3cc(C(=O)N4CCCC(N)C4)ccc3n2C)cc2cccnc21 (centres unmarked) [Example 12, (3-Aminopiperidin-1-yl)(2-(1-ethyl-1H-pyrrolo[2,3-b]pyridin-2-yl)-1-methyl-1H-benzo[d]imidazol-5-yl)methanone]",0.0316 to 10 µM
15,"CCn1c(-c2nc3cc(C(=O)N4CCC[C@@H](N)C4)cc(OC(F)(F)F)c3n2C)cc2cccnc21 [Example 15, (R)-(3-Aminopiperidin-1-yl)(2-(1-ethyl-1H-pyrrolo[2,3-b]pyridin-2-yl)-1-methyl-7-(trifluoromethoxy)-1H-benzo[d]imidazol-5-yl)methanone]",0.0316 to 10 µM
16,"CCC(C)Cn1c(-c2nc3cc(C(=O)N4CCC[C@@H](N)C4)cc(OC)c3n2C)cc2cccnc21 (stereo partly drawn) [Example 17, ((R)-3-Aminopiperidin-1-yl)(7-methoxy-1-methyl-2-(1-(2-methylbutyl)-1H-pyrrolo[2,3-b]pyridin-2-yl)-1H-benzo[d]imidazol-5-yl)methanone]",0.0316 to 10 µM
17,"CCn1c(-c2nc3cc(C(=O)N4CCC[C@@H](N)C4)cc(OC)c3n2CCOC)cc2cccnc21 [Example 18, (R)-(3-Aminopiperidin-1-yl)(2-(1-ethyl-1H-pyrrolo[2,34]pyridin-2-yl)-7-methoxy-1-(2-methoxyethyl)-1H-benzo[d]imidazol-5-yl)methanone, hydrochloride]",0.0316 to 10 µM
18,"CCn1c(-c2nc3cc(C(=O)N4CCC[C@@H](N)C4)cc(OC)c3n2CC(C)C)cc2cccnc21 [Example 20, (R)-(3-Aminopiperidin-1-yl)(2-(1-ethyl-1H-pyrrolo[2,3-b]pyridin-2-yl)-1-isobutyl-7-methoxy-1H-benzo[d]imidazol-5-yl)methanone, hydrochloride]",0.0316 to 10 µM
19,"COc1cc(C(=O)N2CCC[C@@H](N)C2)cc2nc(-c3cc4cccnc4n3CC(C)(C)OC)n(C)c12 [Example 21, (R)-(3-Aminopiperidin-1-yl)(7-methoxy-2-(1-(2-methoxy-2-methylpropyl)-1H-pyrrolo[2,3-b]pyridin-2-yl)-1-methyl-1H-benzo[d]imidazol-5-yl)methanone]",0.0316 to 10 µM
